According to US7405314B2 (priority 2004, dated 2008):

Legend:
HL60 cells = format: cell-based, human
[1] = tested on: HL60 human leukemia cells; format: cell-based
[2] = tested on: U937/PR9 cells (PML/RAR alpha); format: cell-based, human
Swiss Webster mice = details: mouse, in vivo
mice = details: mouse, in vivo
[3] = tested on: panel of 60 tumor cell lines; format: cell-based, human

Question: How did the cell cycle disturbance (HL60 cells) turn out when `C[As](C)SC[C@H](NC(=O)CC[C@H](N)C(=O)O)C(=O)NCC(=O)O` [SGLU1, S-(Dimethylarsino) Glutathione] was run?
Answer: marked accumulation of cells in S-phase

Question: What about the “induction of apoptosis (annexin V staining), events involved” value [1] of the same compound?
Answer: involves change of the potential of mitochondrial membrane (CMXRos staining) and activation of caspases

Question: And the “influence of functional PML/Rar alpha gene on sensitivity of the cells” value [2]?
Answer: no influence on the sensitivity

Question: What about the tolerability (Swiss Webster mice) of the same compound?
Answer: tolerated

Question: What about the “doses at which deaths occurred” value (mice; both, iv) of the same compound?
Answer: 250, 300, and 350 mg/kg/day

Question: What about the “no-observable-effect level for female mice” value (mice; female, iv) of the same compound?
Answer: 150 mg/kg

Question: What about the “no-observable-effect level (NOEL) for male mice” value (mice; male, iv) of the same compound?
Answer: 100 mg/kg/day

Question: And the “testicular seminiferous tubular degeneration, incidence” value (mice; 150 mg/kg/day)?
Answer: ⅕

Question: And the “centrilobular hypertrophy of hepatocytes, incidence” value (mice; 200 mg/kg/day)?
Answer: ⅕

Question: What about the “organs with compound-related lesions” value (mice; iv) of the same compound?
Answer: lung, liver, thymus, and testes

Question: And the “sex difference in susceptibility (deaths)” value (mice; iv)?
Answer: female mice being more susceptible than males

Question: And the “toxicity to normal cells compared with arsenic trioxide” value (normal donor cells)?
Answer: less toxic then arsenic trioxide

Question: And the “anticancer activity against tumor cell line panel” value [3]?
Answer: evidence of activity at low concentrations
